In assay [1] the target is Adenosine A2A receptor (Tag-lite Adenosine A2A labeled cells) (Homo sapiens (Human), UniProt P29274). The assay can be described thus: A2A Tag-lite HTRF Assay. As to conditions: displacement of Adenosine A2A Receptor Red antagonist fluorescent ligand, 12.5 nM. It is filed as binding. An excerpt: The final concentration of DMSO was 1%.
Assay [2] has as its target human adenosine A2B receptor (Homo sapiens (Human), UniProt P29275). The assay can be described thus: Adenosine A2B Receptor Cyclic AMP GS Assay. To be noted: HEK-293 cells, agonist NECA at 12 nM, cAMP accumulation; read-out: A2B—cAMP_EC50. It is filed as cell-based. As for the experimental part:
Stably transfected HEK-293 cells expressing the human adenosine A2B receptor (Perkin Elmer) were maintained in MEM culture medium with 10% FBS and 100 μg/mL Geneticin (Life Technologies). 18 to 24 hours prior to assay, geneticin was removed from culture. The cisbio cAMP-GS Dynamic kit utilizing the FRET (Fluorescence Resonance Energy Transfer) technology was used to measure cAMP accumulation in the cells. Compounds of the present disclosure at an appropriate concentration were mixed with 10000 cells/well in white 96 well half area plates (Perkin Elmer) for 30 min at room temperature gently shaking. Agonist, NECA (R&D Technologies) at 12 nM was added to each well for 60 min at room temperature gently shaking. Detection reagents, d2-labeled cAMP (acceptor) and anti-cAMP cryptate (donor) were added to each well for 60 min at RT gently shaking. Plates were read on Pherastar (BMG Labtech), fluorescence ratio 665/620 was calculated and EC50 determination was performed by fitting the curve of percent of control versus the log of the compound concentration using GraphPad Prism.
(In general: cAMP levels reflect the balance of adenylyl cyclase and phosphodiesterase activity.)

For orientation: Ki means the dissociation constant of the complex between target and ligand, obtained from inhibition or displacement.

human adenosine A2B receptor, sequence (P29275 whole entry): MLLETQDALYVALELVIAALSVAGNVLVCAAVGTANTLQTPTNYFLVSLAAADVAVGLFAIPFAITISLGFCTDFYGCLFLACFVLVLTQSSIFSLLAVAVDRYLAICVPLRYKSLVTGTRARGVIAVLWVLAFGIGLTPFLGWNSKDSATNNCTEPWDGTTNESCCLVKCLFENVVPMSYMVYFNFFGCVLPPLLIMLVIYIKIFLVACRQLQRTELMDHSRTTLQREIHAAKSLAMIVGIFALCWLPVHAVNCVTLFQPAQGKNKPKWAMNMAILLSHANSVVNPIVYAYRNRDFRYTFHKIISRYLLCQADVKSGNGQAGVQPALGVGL
Adenosine A2A receptor (Tag-lite Adenosine A2A labeled cells), sequence (P29274 whole entry): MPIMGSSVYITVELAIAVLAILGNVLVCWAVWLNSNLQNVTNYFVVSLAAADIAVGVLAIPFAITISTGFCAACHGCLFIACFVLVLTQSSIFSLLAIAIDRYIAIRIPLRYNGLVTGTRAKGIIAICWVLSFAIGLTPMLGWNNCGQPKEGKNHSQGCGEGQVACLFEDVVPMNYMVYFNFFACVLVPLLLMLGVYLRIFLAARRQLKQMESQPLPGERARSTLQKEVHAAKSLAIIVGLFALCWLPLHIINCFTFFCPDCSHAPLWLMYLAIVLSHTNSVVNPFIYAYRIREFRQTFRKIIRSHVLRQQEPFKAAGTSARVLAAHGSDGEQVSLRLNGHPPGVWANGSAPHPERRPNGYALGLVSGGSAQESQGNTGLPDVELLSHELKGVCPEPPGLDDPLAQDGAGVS

On to `N#Cc1cccc(-c2nc(N)c3cn(Cc4ccccn4)nc3c2-c2ccncn2)c1` [Example 1, 3-(4-amino-2-(pyridin-2-ylmethyl)-7-(pyrimidin-4-yl)-2H-pyrazolo[4,3-c]pyridin-6-yl)benzonitrile], for which, in assay [1], the Ki was at most 10 nM. Moreover, the EC50 in assay [2] lay in the range of 10 to 100 nM.
For `CCn1nccc1-c1c(-c2cccc(C#N)c2)nc(N)c2cn(Cc3ccccn3)nc12` [Example 2, 3-(4-amino-7-(1-ethyl-1H-pyrazol-5-yl)-2-(pyridin-2-ylmethyl)-2H-pyrazolo[4,3-c]pyridin-6-yl)benzonitrile], in that order: at most 10 nM and at most 10 nM.
For `N#Cc1cccc(-c2nc(N)c3cn(Cc4ncccc4F)nc3c2-c2ccncn2)c1` [Example 3, 3-(4-amino-2-((3-fluoropyridin-2-yl)methyl)-7-(pyrimidin-4-yl)-2H-pyrazolo[4,3-c]pyridin-6-yl)benzonitrile], in that order: at most 10 nM and 10 to 100 nM.
`Cn1ccc(Cn2cc3c(N)nc(-c4cccc(C#N)c4)c(-c4ccncn4)c3n2)n1` [Example 4, 3-(4-amino-2-((1-methyl-1H-pyrazol-3-yl)methyl)-7-(pyrimidin-4-yl)-2H-pyrazolo[4,3-c]pyridin-6-yl)benzonitrile] came in with a Ki in assay [1] of at most 10 nM. In assay [2], the EC50 was 10 to 100 nM.
In the same order, the values of `N#Cc1cccc(-c2nc(N)c3cn(Cc4ccccn4)nc3c2-c2ccncc2)c1` [Example 6, 3-(4-amino-2-(pyridin-2-ylmethyl)-7-(pyridin-4-yl)-2H-pyrazolo[4,3-c]pyridin-6-yl)benzonitrile] are at most 10 nM and at most 10 nM.
For `N#Cc1cccc(-c2nc(N)c3cn(Cc4ccccc4F)nc3c2-c2ccncn2)c1` [Example 7, 3-(4-amino-2-(2-fluorobenzyl)-7-(pyrimidin-4-yl)-2H-pyrazolo[4,3-c]pyridin-6-yl)benzonitrile], in that order: at most 10 nM and at most 10 nM.
For `N#Cc1cccc(-c2nc(N)c3nn(Cc4ccccn4)cc3c2-c2ccncn2)c1` [Example 8, 3-(7-amino-2-(pyridin-2-ylmethyl)-4-(pyrimidin-4-yl)-2H-pyrazolo[3,4-c]pyridin-5-yl)benzonitrile], in that order: at most 10 nM and at most 10 nM.
For the compound `CCn1nccc1-c1c(-c2cccc(C#N)c2)nc(N)c2nn(Cc3ccccn3)cc12` [Example 9, 3-(7-amino-4-(1-ethyl-1H-pyrazol-5-yl)-2-(pyridin-2-ylmethyl)-2H-pyrazolo[3,4-c]pyridin-5-yl)benzonitrile], in assay [1], the Ki was at most 10 nM. Further, in assay [2], the EC50 was at most 10 nM.
In turn, `Cc1cccc(Cn2cc3c(-c4ccncn4)c(-c4cccc(C#N)c4)nc(N)c3n2)n1` [Example 10, 3-(7-amino-2-((6-methylpyridin-2-yl)methyl)-4-(pyrimidin-4-yl)-2H-pyrazolo[3,4-c]pyridin-5-yl)benzonitrile] yielded a Ki in assay [1] of at most 10 nM. In addition, the EC50 in assay [2] was at most 10 nM.
Take `CCn1nccc1-c1c(-c2cccc(C#N)c2)nc(N)c2nn(Cc3cccc(C)n3)cc12` [Example 11, 3-(7-amino-4-(1-ethyl-1H-pyrazol-5-yl)-2-((6-methylpyridin-2-yl)methyl)-2H-pyrazolo[3,4-c]pyridin-5-yl)benzonitrile]: the Ki in assay [1] was at most 10 nM. In assay [2], the EC50 fell in the range of 10 to 100 nM.
`Cc1ncoc1-c1c(-c2cccc(C#N)c2)nc(N)c2nn(Cc3ccccn3)cc12` [Example 12, 3-(7-amino-4-(4-methyloxazol-5-yl)-2-(pyridin-2-ylmethyl)-2H-pyrazolo[3,4-c]pyridin-5-yl)benzonitrile] returned a Ki in assay [1] of at most 10 nM. Besides, the EC50 in assay [2] lay in the range of 10 to 100 nM.
In the same order, the values of `Cc1cccc(Cn2cc3c(-c4ocnc4C)c(-c4cccc(C#N)c4)nc(N)c3n2)n1` [Example 13] are at most 10 nM and 10 to 100 nM.
The compound `CCn1nccc1-c1c(-c2cccc(C#N)c2)nc(N)c2nn(Cc3ncccc3F)cc12` [Example 14, 3-(7-amino-4-(1-ethyl-1H-pyrazol-5-yl)-2-((3-fluoropyridin-2-yl)methyl)-2H-pyrazolo[3,4-c]pyridin-5-yl)benzonitrile] registered a Ki in assay [1] of at most 10 nM. Moreover, the EC50 in assay [2] is at most 10 nM.
`N#Cc1cccc(-c2nc(N)c3nn(Cc4ccccn4)nc3c2-c2ccncn2)c1` [Example 16, 3-(4-amino-2-(pyridin-2-ylmethyl)-7-(pyrimidin-4-yl)-2H-[1,2,3]triazolo[4,5-c]pyridin-6-yl)benzonitrile] had an inhibition constant (Ki) in assay [1] of at most 10 nM. Moreover, in assay [2], the EC50 was at most 10 nM.
`Cc1ncoc1-c1c(-c2cccc(C#N)c2)nc(N)c2nn(Cc3ccccn3)nc12` [Example 17, 3-(4-amino-7-(4-methyloxazol-5-yl)-2-(pyridin-2-ylmethyl)-2H-[1,2,3]triazolo[4,5-c]pyridin-6-yl)benzonitrile] gave a Ki in assay [1] of at most 10 nM. Besides, the EC50 in assay [2] is at most 10 nM.
For the compound `CCn1nccc1-c1c(-c2cccc(C#N)c2)nc(N)c2nn(Cc3ccccn3)nc12` [Example 18, 3-(4-amino-7-(1-ethyl-1H-pyrazol-5-yl)-2-(pyridin-2-ylmethyl)-2H-[1,2,3]triazolo[4,5-c]pyridin-6-yl)benzonitrile], in assay [1], the Ki was at most 10 nM. Moreover, the EC50 in assay [2] was at most 10 nM.
As to `Cc1cnccc1-c1c(-c2cccc(C#N)c2)nc(N)c2nn(Cc3ccccn3)nc12` [Example 19, 3-(4-amino-7-(3-methylpyridin-4-yl)-2-(pyridin-2-ylmethyl)-2H-[1,2,3]triazolo[4,5-c]pyridin-6-yl)benzonitrile], the Ki in assay [1] is at most 10 nM. Moreover, the EC50 in assay [2] was at most 10 nM.
`Cc1nc(CO)c(-c2c(-c3cccc(C#N)c3)nc(N)c3nn(Cc4ccccn4)nc23)o1` [Example 20, 3-(4-amino-7-(4-(hydroxymethyl)-2-methyloxazol-5-yl)-2-(pyridin-2-ylmethyl)-2H-[1,2,3]triazolo[4,5-c]pyridin-6-yl)benzonitrile] came in with a Ki in assay [1] of at most 10 nM. Also, the EC50 in assay [2] is at most 10 nM.
In assay [1], `N#Cc1cccc(-c2nc(N)c3nn(Cc4ccccn4)nc3c2-c2cnco2)c1` [Example 21, 3-(4-amino-7-(oxazol-5-yl)-2-(pyridin-2-ylmethyl)-2H-[1,2,3]triazolo[4,5-c]pyridin-6-yl)benzonitrile] gave a Ki of at most 10 nM. Besides, the EC50 in assay [2] is at most 10 nM.
In assay [1], `N#Cc1cccc(-c2nc(N)c3nn(Cc4ccccn4)nc3c2-c2ccc3ncccc3c2)c1` [Example 22, 3-(4-amino-2-(pyridin-2-ylmethyl)-7-(quinolin-6-yl)-2H-[1,2,3]triazolo[4,5-c]pyridin-6-yl)benzonitrile] came in with a Ki of at most 10 nM. For the same compound, in assay [2], the EC50 was at most 10 nM.
The compound `N#Cc1cccc(-c2nc(N)c3nn(Cc4ccccn4)nc3c2-c2ccc3nccnc3c2)c1` [Example 23, 3-(4-amino-2-(pyridin-2-ylmethyl)-7-(quinoxalin-6-yl)-2H-[1,2,3]triazolo[4,5-c]pyridin-6-yl)benzonitrile] gave a Ki in assay [1] of at most 10 nM. Besides, in assay [2], the EC50 fell in the range of 100 to 1000 nM.
For `Cc1cccc(Cn2nc3c(N)nc(-c4cccc(C#N)c4)c(-c4ccncn4)c3n2)n1` [Example 24, 3-(4-amino-2-((6-methylpyridin-2-yl)methyl)-7-(pyrimidin-4-yl)-2H-[1,2,3]triazolo[4,5-c]pyridin-6-yl)benzonitrile], in that order: at most 10 nM and at most 10 nM.

Source of the values: patent US11390624B2, “Pyrazolopyridines and triazolopyridines as A2A / A2B inhibitors” (Incyte Corporation, priority 2019, dated 2022).
